According to patent US9255295B2, “Method for evaluating the sensitizing potential of a test compound” (IMMUNOSEARCH, priority 2010, dated 2016):
Read-outs that look alike come from different tables or passages of the source.

System: ARE gene family (AKR1B10, AKR1C1, AKR1C2, CYP1B1, FTH1P, FTL, G6PD, GCLM, NQO2, SLC7A11, TXNRD1, UGT1A1, UGT1A9, YWHAZ, CD36, CYP1A1, GCLC, HMOX1, NQO1, PSME2 …)
Details: for AHR expression / AKR1B10 expression / AKR1C1 expression / AKR1C2 expression / CYP1A1 expression / CYP1B1 expression / FTH1P expression / FTL expression / GCLC expression / GCLM expression / HMOX1 expression / NQO1 expression / NQO2 expression / SLC7A11 expression / TXNRD1 expression / UGT1A1 expression / UGT1A9 expression: compared to the control

With CC=Cc1ccc(O)c(OC)c1 [Isoeugenol] as the compound, how does the “AHR NUMBER OF GENES grade” value (0.1%) read?
Its value is 0 (if this expression is lower, the grade is 0).

And the “AKR1B10 NUMBER OF GENES grade” value (0.1%)?
Its value is 0 (if this expression is lower, the grade is 0).

And the “AKR1C1 NUMBER OF GENES grade” value (0.1%)?
Its value is 0 (if this expression is lower, the grade is 0).

What about the “AKR1C2 NUMBER OF GENES grade” value (0.1%) of the same compound?
The value was 0 (if this expression is lower, the grade is 0).

And the “ARE >1.3 (number of genes)” value (0.1%)?
The value was 2.

What about the “CD36 expression compared to control” value (0.1%) of the same compound?
Its value is 0.9.

What about the “CD36 grade (NUMBER OF GENES)” value (0.1%) of the same compound?
The value was 0 (if this expression is lower, the grade is 0).

What about the “CYP1A1 NUMBER OF GENES grade” value (0.1%) of the same compound?
The value was 1 (If the expression is greater than 1.3 compared to the control, a grade of 11s given).

What about the “CYP1B1 NUMBER OF GENES grade” value (0.1%) of the same compound?
Its value is 1 (If the expression is greater than 1.3 compared to the control, a grade of 11s given).

And the “FTH1P NUMBER OF GENES grade” value (0.1%)?
Its value is 0 (if this expression is lower, the grade is 0).

What about the “FTL NUMBER OF GENES grade” value (0.1%) of the same compound?
The value was 0 (if this expression is lower, the grade is 0).

What about the “GCLC NUMBER OF GENES grade” value (0.1%) of the same compound?
The value was 0 (if this expression is lower, the grade is 0).

What about the “GCLM NUMBER OF GENES grade” value (0.1%) of the same compound?
Its value is 0 (if this expression is lower, the grade is 0).

What about the “HMOX1 NUMBER OF GENES grade” value (0.1%) of the same compound?
The value was 0 (if this expression is lower, the grade is 0).

And the “NQO1 NUMBER OF GENES grade” value (0.1%)?
Its value is 0 (if this expression is lower, the grade is 0).

What about the “NQO2 NUMBER OF GENES grade” value (0.1%) of the same compound?
The value was 0 (if this expression is lower, the grade is 0).

And the “S100A8 expression compared to control” value (0.1%)?
Its value is 1.1.

And the “S100A8 grade (NUMBER OF GENES)” value (0.1%)?
Its value is 0 (if this expression is lower, the grade is 0).

What about the “SLC7A11 NUMBER OF GENES grade” value (0.1%) of the same compound?
Its value is 0 (if this expression is lower, the grade is 0).

What about the “TOTAL ARE (number of genes)” value (0.1%) of the same compound?
The value was 2.

And the “TXNRD1 NUMBER OF GENES grade” value (0.1%)?
The value was 0 (if this expression is lower, the grade is 0).

What about the “UGT1A1 NUMBER OF GENES grade” value (0.1%) of the same compound?
Its value is 0 (if this expression is lower, the grade is 0).

What about the “UGT1A9 NUMBER OF GENES grade” value (0.1%) of the same compound?
The value was 0 (if this expression is lower, the grade is 0).

And the AHR expression (0.1%)?
The AHR expression was 0.7.

And the AKR1B10 expression (0.1%)?
The AKR1B10 expression was 0.9.

What about the AKR1C1 expression (0.1%) of the same compound?
The AKR1C1 expression was 1.1.

And the AKR1C2 expression (0.1%)?
The AKR1C2 expression was 1.0.

What about the CYP1A1 expression (0.1%) of the same compound?
The CYP1A1 expression was 11.9.

And the CYP1B1 expression (0.1%)?
The CYP1B1 expression was 12.2.

What about the FTH1P expression (0.1%) of the same compound?
The FTH1P expression was 0.8.

What about the FTL expression (0.1%) of the same compound?
The FTL expression was 1.0.

What about the GCLC expression (0.1%) of the same compound?
The GCLC expression was 0.8.

What about the GCLM expression (0.1%) of the same compound?
The GCLM expression was 1.1.

What about the HMOX1 expression (0.1%) of the same compound?
Its HMOX1 expression is 0.9.

What about the NQO1 expression (0.1%) of the same compound?
Its NQO1 expression is 1.1.

What about the NQO2 expression (0.1%) of the same compound?
Its NQO2 expression is 1.0.

And the SLC7A11 expression (0.1%)?
The SLC7A11 expression was 1.1.

What about the TXNRD1 expression (0.1%) of the same compound?
The TXNRD1 expression was 1.1.

And the UGT1A1 expression (0.1%)?
The UGT1A1 expression was 1.0.

And the UGT1A9 expression (0.1%)?
Its UGT1A9 expression is 0.8.

And the “AHR NUMBER OF GENES grade” value (1%)?
Its value is 0 (if this expression is lower, the grade is 0).

And the “AKR1B10 NUMBER OF GENES grade” value (1%)?
The value was 0 (if this expression is lower, the grade is 0).

And the “AKR1C1 NUMBER OF GENES grade” value (1%)?
The value was 0 (if this expression is lower, the grade is 0).

What about the “AKR1C2 NUMBER OF GENES grade” value (1%) of the same compound?
The value was 0 (if this expression is lower, the grade is 0).

What about the “ARE >1.3 (number of genes)” value (1%) of the same compound?
Its value is 3.

What about the “CD36 expression compared to control” value (1%) of the same compound?
Its value is 1.3.

What about the “CD36 grade (NUMBER OF GENES)” value (1%) of the same compound?
Its value is 1 (If the expression is greater than 1.3 compared to the control, a grade of 11s given).

What about the “CYP1A1 NUMBER OF GENES grade” value (1%) of the same compound?
Its value is 1 (If the expression is greater than 1.3 compared to the control, a grade of 11s given).

What about the “CYP1B1 NUMBER OF GENES grade” value (1%) of the same compound?
Its value is 1 (If the expression is greater than 1.3 compared to the control, a grade of 11s given).

And the “FTH1P NUMBER OF GENES grade” value (1%)?
The value was 0 (if this expression is lower, the grade is 0).

What about the “FTL NUMBER OF GENES grade” value (1%) of the same compound?
Its value is 0 (if this expression is lower, the grade is 0).

And the “GCLC NUMBER OF GENES grade” value (1%)?
The value was 0 (if this expression is lower, the grade is 0).

What about the “GCLM NUMBER OF GENES grade” value (1%) of the same compound?
Its value is 0 (if this expression is lower, the grade is 0).

And the “HMOX1 NUMBER OF GENES grade” value (1%)?
The value was 0 (if this expression is lower, the grade is 0).

What about the “NQO1 NUMBER OF GENES grade” value (1%) of the same compound?
Its value is 0 (if this expression is lower, the grade is 0).

And the “NQO2 NUMBER OF GENES grade” value (1%)?
The value was 0 (if this expression is lower, the grade is 0).

And the “S100A8 expression compared to control” value (1%)?
Its value is 1.0.

What about the “S100A8 grade (NUMBER OF GENES)” value (1%) of the same compound?
Its value is 0 (if this expression is lower, the grade is 0).

What about the “SLC7A11 NUMBER OF GENES grade” value (1%) of the same compound?
The value was 0 (if this expression is lower, the grade is 0).

What about the “TOTAL ARE (number of genes)” value (1%) of the same compound?
Its value is 3.

And the “TXNRD1 NUMBER OF GENES grade” value (1%)?
Its value is 1 (If the expression is greater than 1.3 compared to the control, a grade of 11s given).

What about the “UGT1A1 NUMBER OF GENES grade” value (1%) of the same compound?
Its value is 0 (if this expression is lower, the grade is 0).

What about the “UGT1A9 NUMBER OF GENES grade” value (1%) of the same compound?
Its value is 0 (if this expression is lower, the grade is 0).

What about the AHR expression (1%) of the same compound?
Its AHR expression is 0.9.

What about the AKR1B10 expression (1%) of the same compound?
The AKR1B10 expression was 0.7.

What about the AKR1C1 expression (1%) of the same compound?
The AKR1C1 expression was 1.2.

What about the AKR1C2 expression (1%) of the same compound?
Its AKR1C2 expression is 0.9.

And the CYP1A1 expression (1%)?
Its CYP1A1 expression is 219.2.

What about the CYP1B1 expression (1%) of the same compound?
Its CYP1B1 expression is 25.3.

And the FTH1P expression (1%)?
The FTH1P expression was 0.9.

And the FTL expression (1%)?
Its FTL expression is 1.0.

And the GCLC expression (1%)?
Its GCLC expression is 0.9.

What about the GCLM expression (1%) of the same compound?
The GCLM expression was 1.2.

And the HMOX1 expression (1%)?
The HMOX1 expression was 1.2.

What about the NQO1 expression (1%) of the same compound?
The NQO1 expression was 1.0.

What about the NQO2 expression (1%) of the same compound?
Its NQO2 expression is 1.0.

What about the SLC7A11 expression (1%) of the same compound?
The SLC7A11 expression was 1.1.

And the TXNRD1 expression (1%)?
The TXNRD1 expression was 1.3.

What about the UGT1A1 expression (1%) of the same compound?
The UGT1A1 expression was 1.1.

What about the UGT1A9 expression (1%) of the same compound?
The UGT1A9 expression was 1.0.

What about the “AHR NUMBER OF GENES grade” value (10%) of the same compound?
Its value is 0 (if this expression is lower, the grade is 0).

And the “AKR1B10 NUMBER OF GENES grade” value (10%)?
Its value is 0 (if this expression is lower, the grade is 0).
